Data as given in patent US8017611B2, “Pyridine and pyrazine derivatives -083” (AstraZeneca AB, priority 2007, dated 2011).

molecular target: T1, recombinant Axl tyrosine kinase (Homo sapiens, UniProt P30530); experiment: In vitro Axl kinase assay (AlphaScreen), Test (a); assay type: biochemical; details: 1 μM; mean calculated from a larger number of replicates than the first value
T1 construct: encompassing amino acids 473 to 894 of Axl; GST (N); made in house; host or cells: SF126 insect cells
T1 sequence (P30530 473-894): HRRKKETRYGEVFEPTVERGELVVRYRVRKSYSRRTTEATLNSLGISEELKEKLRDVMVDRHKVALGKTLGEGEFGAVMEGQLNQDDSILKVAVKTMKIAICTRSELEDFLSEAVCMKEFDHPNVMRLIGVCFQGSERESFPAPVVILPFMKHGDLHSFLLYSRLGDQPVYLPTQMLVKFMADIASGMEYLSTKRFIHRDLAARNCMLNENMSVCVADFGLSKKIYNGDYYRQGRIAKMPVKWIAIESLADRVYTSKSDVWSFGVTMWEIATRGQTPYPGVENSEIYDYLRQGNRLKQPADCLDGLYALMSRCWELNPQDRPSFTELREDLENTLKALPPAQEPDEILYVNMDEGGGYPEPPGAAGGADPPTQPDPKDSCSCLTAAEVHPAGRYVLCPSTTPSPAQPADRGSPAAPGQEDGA

First: Nc1ncc(-c2cccc(N3CCNCC3)c2)nc1-c1nc2ccccc2o1 [Example 20.2]
Second: Nc1ncc(-c2cccc(N3CCOCC3)c2)cc1-c1nc2ccccc2o1 [Example 2.49]
The “% Axl tyrosine kinase inhibition at 1 μM concentration (second value, †)” value of the first is higher: 99.3% for the first, 94.5% for the second.

same assay, conditions: test compound at 1 μM; first value quoted

Going from CN1CC(n2cc(-c3cnc(N)c(-c4nc5ccccc5o4)c3)cn2)C1 [Example 41.8] to Nc1ncc(-c2cnn(C3CCNC3)c2)cc1-c1nc2ccccc2o1 (stereo not drawn) [Example 29.3], the “% Axl tyrosine kinase inhibition at 1 μM concentration” value rises from 99.7% to 99.9%.

Compared with CN1CCC(n2cc(-c3cnc(N)c(-c4nc5c(F)cccc5o4)c3)c(C(=O)N(C)C)n2)CC1 [Example 41.37], CN1CCC(n2cc(-c3cnc(N)c(-c4nc5c(F)cccc5o4)c3)c(CO)n2)CC1 [Example 41.32] is higher in “% Axl tyrosine kinase inhibition at 1 μM concentration” value: 99.5% for the first, 100.0% for the second.

Going from Nc1ncc(-c2ccc3c(c2)OCCO3)cc1-c1nc2ccccc2o1 [Example 2.21] to Nc1ncc(-c2cccc(N3CCOCC3)c2)cc1-c1nc2ccccc2o1 [Example 2.49], the “% Axl tyrosine kinase inhibition at 1 μM concentration” value rises from 45.4% to 93.6%.

Compared with CN(C)C(=O)CN1CCN(C(=O)c2ccc(-c3cnc(N)c(-c4nc5cccnc5o4)c3)cc2)CC1 [Example 45A.67], CN1CCN(C(=O)c2ccc(-c3cnc(N)c(-c4nc5cccnc5o4)c3)cc2)CC1 [Example 45A.49] is lower in “% Axl tyrosine kinase inhibition at 1 μM concentration” value: 96.8% for the first, 96.1% for the second.

Compared with CN1CCN(CCOc2ccc(-c3cnc(N)c(-c4nc5ncccc5o4)c3)cc2)CC1 [Example 43B.7], CN1CCC[C@H]1COc1ccc(-c2cnc(N)c(-c3nc4ncccc4o3)c2)cc1 [Example 43B.5] is higher in “% Axl tyrosine kinase inhibition at 1 μM concentration” value: 98.1% for the first, 99.4% for the second.

Going from CN(C)CCN(C)C(=O)c1ccc(-c2cnc(N)c(-c3nc4ncccc4o3)c2)cc1 [Example 45B.1] to COc1cc(-c2cnc(N)c(-c3nc4ncccc4o3)c2)ccc1OCCN(C)C [Example 43C.3], the “% Axl tyrosine kinase inhibition at 1 μM concentration” value rises from 98.1% to 99.4%.

First: COCCC(=O)N1CCC(n2cc(-c3cnc(N)c(-c4nc5cccnc5o4)c3)cn2)CC1 [Example 59.8]
Second: CC(=O)NCCC(=O)N1CCC(n2cc(-c3cnc(N)c(-c4nc5cccnc5o4)c3)cn2)CC1 [Example 59.11]
The “% Axl tyrosine kinase inhibition at 1 μM concentration” value of the first is lower: 98.2% for the first, 99.0% for the second.

Going from CN1CCN(c2ncc(-c3cnc(N)c(-c4nc5cccnc5o4)c3)s2)CC1 [Example 25.12] to CN1CCN(c2ccc(-c3cnc(N)c(-c4nc5ccccc5o4)n3)cn2)CC1 [Example 20.7], the “% Axl tyrosine kinase inhibition at 1 μM concentration” value rises from 38.2% to 99.6%.

Compared with COc1cc(-c2cnc(N)c(-c3nc4ncccc4o3)c2)ccc1OCCN1CCCC1 [Example 43C.5], COc1cc(-c2cnc(N)c(-c3nc4ncccc4o3)c2)ccc1OC[C@@H]1CCCN1C [Example 43C.6] is higher in “% Axl tyrosine kinase inhibition at 1 μM concentration” value: 99.7% for the first, 99.8% for the second.

Compared with Nc1ncc(-c2ccc(C(=O)N3CCOCC3)cc2)cc1-c1nc2cnccc2o1 [Example 8A.12], Nc1ncc(-c2ccc(C(=O)N3CCC(O)CC3)cc2)cc1-c1nc2cccnc2o1 [Example 9A.6] is lower in “% Axl tyrosine kinase inhibition at 1 μM concentration” value: 97.8% for the first, 95.6% for the second.

Going from Nc1ncc(-c2cccc(CN3CCCCC3)c2)cc1-c1nc2ncccc2o1 [Example 10A.11] to Nc1ncc(-c2cccc(CN3CCCC3)c2)cc1-c1nc2ccncc2o1 [Example 11A.5], the “% Axl tyrosine kinase inhibition at 1 μM concentration” value rises from 88.4% to 97.4%.

Compared with Nc1ncc(-c2cccc(N3CCNCC3)c2)nc1-c1nc2ccccc2o1 [Example 20.2], COc1cc(N2CCNCC2)ccc1-c1cnc(N)c(-c2nc3ccccc3o2)c1 [Example 2.38] is lower in “% Axl tyrosine kinase inhibition at 1 μM concentration” value: 99.6% for the first, 99.0% for the second.

Compared with Nc1ncc(-c2ccc(C(=O)N3CCN(Cc4ccncc4)CC3)cc2)cc1-c1nc2cccnc2o1 [Example 45A.62], Nc1ncc(-c2ccc(C(=O)N3CCCNCC3)cc2)cc1-c1nc2cccnc2o1 [Example 45A.82] is higher in “% Axl tyrosine kinase inhibition at 1 μM concentration” value: 97.3% for the first, 98.4% for the second.

First: COc1cc(-c2cnc(N)c(-c3nc4ncccc4o3)c2)ccc1OCCCN1CCN(S(C)(=O)=O)CC1 [Example 43C.15]
Second: COc1cc(-c2cnc(N)c(-c3nc4ncccc4o3)c2)ccc1OCCCCN [Example 43C.30]
The “% Axl tyrosine kinase inhibition at 1 μM concentration” value of the first is lower: 97.2% for the first, 99.0% for the second.

First: CNCCCNC(=O)c1ccc(-c2cnc(N)c(-c3nc4cccnc4o3)c2)cc1 [Example 45A.81]
Second: Nc1ncc(-c2ccc(C(=O)N[C@H]3CN4CCC3CC4)cc2)cc1-c1nc2cccnc2o1 [Example 45A.35]
The “% Axl tyrosine kinase inhibition at 1 μM concentration” value of the first is higher: 99.6% for the first, 98.4% for the second.

First: Nc1ncc(-c2cnn(CCCN3CCC3)c2)cc1-c1nc2ccccc2o1 [Example 31.6]
Second: NCc1ccc(-c2cnc(N)c(-c3nc4cnccc4o3)c2)cc1 [Example 8A.23]
The “% Axl tyrosine kinase inhibition at 1 μM concentration” value of the first is higher: 99.7% for the first, 99.1% for the second.

First: Nc1ncc(-c2ccc(OCCC3CCCCN3)cc2)cc1-c1nc2ncccc2o1 (stereo not drawn) [Example 43B.40]
Second: Nc1ncc(-c2ccc(C(=O)N3CCCCC3CN3CCCC3)cc2)cc1-c1nc2cccnc2o1 (stereo not drawn) [Example 45A.23]
The “% Axl tyrosine kinase inhibition at 1 μM concentration” value of the first is lower: 97.7% for the first, 99.8% for the second.

With CN(C)C(=O)[C@@H]1CCCN1C(=O)c1ccc(-c2cnc(N)c(-c3nc4cccnc4o3)c2)cc1 [Example 45A.75] the “% Axl tyrosine kinase inhibition at 1 μM concentration” value was 91.6%.

same assay, conditions: test compound at 1 μM; first value quoted; read-out: % Axl tyrosine kinase inhibition at 1 μM concentration

First: COCC(=O)N1CCC(n2cc(-c3cnc(N)c(-c4nc5ncccc5o4)c3)cn2)CC1 [Example 56, 1-[4-[4-(6-amino-5-oxazolo[4,5-b]pyridin-2-yl-3-pyridyl)pyrazol-1-yl]-1-piperidyl]-2-methoxy-ethanone]
Second: Nc1ncc(-c2cnn(C3CCNCC3)c2)cc1-c1nc2ncc(F)cc2o1 [Example 37, 3-(6-fluorooxazolo[4,5-b]pyridin-2-yl)-5-[1-(4-piperidyl)pyrazol-4-yl]pyridin-2-amine]
The inhibition at 1 µM of the first is higher: 99.3% for the first, 98.4% for the second.

First: Nc1ncc(-c2ccc(OCCCN3CCCC3)cc2)cc1-c1nc2cccnc2o1 [Example 42, 3-oxazolo[5,4-b]pyridin-2-yl-5-[4-(3-pyrrolidin-1-ylpropoxy)phenyl]pyridin-2-amine]
Second: COCc1nn(C2CCN(CCO)CC2)cc1-c1cnc(N)c(-c2nc3ccccc3o2)c1 [Example 72, 2-[4-[4-[6-amino-5-(1,3-benzoxazol-2-yl)-3-pyridyl]-3-(methoxymethyl)pyrazol-1-yl]-1-piperidyl]ethanol]
The inhibition at 1 µM of the first is lower: 99.7% for the first, 100% for the second.

Cc1c(-c2cnc(N)c(-c3nc4ccccc4o3)c2)cnn1C1CCNCC1 [Example 24, 3-(1,3-benzoxazol-2-yl)-5-[5-methyl-1-(4-piperidyl)pyrazol-4-yl]pyridin-2-amine] showed an inhibition at 1 µM of 100%.
